Assay results reported in PubChem BioAssay (NCI).
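Step 1: Grow cells in 96-well plates. Step 2: Expose to compound for 48 hours at 5 concentrations. Step 3: Interpolate endpoints linearly; if unreached, use highest concentration. TGI: concentration producing complete growth inhibition.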

Legend:
Assay in all cases: NCI tumour cell line growth inhibition, 48 h
[1] = test system: EKVX NSCLC
[2] = test system: UACC-257 melanoma
[3] = test system: SK-MEL-2 melanoma
[4] = test system: OVCAR-4 ovarian
[5] = test system: RPMI-8226 leukemia
[6] = test system: HOP-62 NSCLC
[7] = test system: DLD-1 colon
[8] = test system: SK-MEL-5 melanoma
[9] = test system: KM12 colon
[10] = test system: SW-620 colon
[11] = test system: COLO 205 colon
[12] = test system: HCT-116 colon
[13] = test system: UACC-62 melanoma
[14] = test system: NCI-H522 lung
[15] = test system: OVCAR-8 ovarian
[16] = test system: 786-0 renal
[17] = test system: HOP-18 NSCLC
[18] = test system: HCT-15 colon
[19] = test system: NCI-H226 lung
[20] = test system: SF-539 CNS
[21] = test system: SK-MEL-28 melanoma
[22] = test system: IGROV1 ovarian
[23] = test system: SNB-78 CNS
[24] = test system: MOLT-4 leukemia
[25] = test system: A498 renal
[26] = test system: XF 498 CNS
[27] = test system: ACHN renal
[28] = test system: U251 CNS
[29] = test system: HL-60(TB) leukemia
[30] = test system: RXF 393 renal
[31] = test system: OVCAR-3 ovarian
[32] = test system: KM20L2 colon
[33] = test system: HT29 colon
[34] = test system: LXFL 529 NSCLC
[35] = test system: CCRF-CEM leukemia
[36] = test system: M19-MEL melanoma
[37] = test system: SNB-75 CNS
[38] = test system: SF-268 CNS
[39] = test system: M14 melanoma
[40] = test system: SR leukemia
[41] = test system: LOX IMVI melanoma
[42] = test system: NCI-H23 lung
[43] = test system: A549 NSCLC
[44] = test system: SF-295 CNS
[45] = test system: MALME-3M melanoma
[46] = test system: UO-31 renal
[47] = test system: SN12C renal
[48] = test system: SK-OV-3 ovarian
[49] = test system: SNB-19 CNS
[50] = test system: K-562 leukemia
[51] = test system: TK-10 renal
[52] = test system: CAKI-1 renal
[53] = test system: DMS 114 small cell lung
[54] = test system: HCC-2998 colon
[55] = test system: DMS 273 small cell lung
[56] = test system: HOP-92 NSCLC
[57] = test system: OVCAR-5 ovarian
[58] = test system: NCI-H460 lung
[59] = test system: HS 578T breast
[60] = test system: DU-145 prostate
[61] = test system: BT-549 breast
[62] = test system: MCF7 breast
[63] = test system: T-47D breast
[64] = test system: MDA-MB-435
[65] = test system: PC-3 prostate
[66] = test system: MDA-MB-231 breast
[67] = test system: MDA-N
[68] = test system: NCI/ADR-RES ovarian

C[N+](C)(C)CC1CCC(C[N+](C)(C)C)C1=NO (stereo unspecified)
TGI [1]: > 100 µM
TGI [2]: > 100 µM
TGI [3]: > 100 µM
TGI [4]: > 100 µM
TGI [5]: > 100 µM
TGI [6]: > 100 µM
TGI [7]: > 100 µM
TGI [8]: > 100 µM
TGI [9]: > 100 µM
TGI [10]: > 100 µM
TGI [11]: > 100 µM
TGI [12]: > 100 µM
TGI [13]: > 100 µM
TGI [14]: > 100 µM
TGI [15]: > 100 µM
TGI [16]: > 100 µM
TGI [17]: > 100 µM
TGI [18]: > 100 µM
TGI [19]: > 100 µM
TGI [20]: > 100 µM
TGI [21]: > 100 µM
TGI [22]: > 100 µM
TGI [23]: > 100 µM
TGI [24]: > 100 µM
TGI [25]: > 100 µM
TGI [26]: > 100 µM
TGI [27]: > 100 µM
TGI [28]: > 100 µM
TGI [29]: > 100 µM
TGI [30]: > 100 µM
TGI [31]: > 100 µM
TGI [32]: > 100 µM
TGI [33]: > 100 µM
TGI [34]: > 100 µM
TGI [35]: > 100 µM
TGI [36]: > 100 µM
TGI [37]: > 100 µM
TGI [38]: > 100 µM
TGI [39]: > 100 µM
TGI [40]: > 100 µM
TGI [41]: > 100 µM
TGI [42]: > 100 µM
TGI [43]: > 100 µM
TGI [44]: > 100 µM
TGI [45]: > 100 µM
TGI [46]: > 100 µM
TGI [47]: > 100 µM
TGI [48]: > 100 µM
TGI [49]: > 100 µM
TGI [50]: > 100 µM

COC(=O)c1c(C(=O)OC)c(-c2ccccc2)n(-c2ccccc2)c(=O)c1-c1ccccc1
TGI [1]: > 100 µM
TGI [2]: > 100 µM
TGI [4]: 78.1 µM
TGI [5]: > 100 µM
TGI [6]: > 100 µM
TGI [7]: > 100 µM
TGI [51]: > 100 µM
TGI [8]: > 100 µM
TGI [52]: > 100 µM
TGI [9]: > 100 µM
TGI [10]: > 100 µM
TGI [11]: > 100 µM
TGI [12]: > 100 µM
TGI [13]: > 100 µM
TGI [14]: > 100 µM
TGI [15]: > 100 µM
TGI [53]: > 100 µM
TGI [16]: > 100 µM
TGI [18]: > 100 µM
TGI [19]: > 100 µM
TGI [20]: > 100 µM
TGI [22]: > 100 µM
TGI [23]: > 100 µM
TGI [24]: > 100 µM
TGI [25]: > 100 µM
TGI [54]: > 100 µM
TGI [26]: 68.8 µM
TGI [28]: > 100 µM
TGI [55]: > 100 µM
TGI [29]: > 100 µM
TGI [30]: 60.8 µM
TGI [56]: 83 µM
TGI [31]: > 100 µM
TGI [32]: > 100 µM
TGI [33]: > 100 µM
TGI [34]: > 100 µM
TGI [57]: > 100 µM
TGI [35]: > 100 µM
TGI [36]: > 100 µM
TGI [37]: 64 µM
TGI [58]: > 100 µM
TGI [38]: > 100 µM
TGI [39]: > 100 µM
TGI [40]: > 100 µM
TGI [41]: > 100 µM
TGI [42]: > 100 µM
TGI [43]: > 100 µM
TGI [44]: > 100 µM
TGI [45]: > 100 µM
TGI [46]: > 100 µM
TGI [47]: > 100 µM
TGI [48]: > 100 µM
TGI [49]: > 100 µM
TGI [50]: > 100 µM

CCOc1ccc(C2=NN(CC)C(=O)C(C3C(=O)N(c4ccccc4)N=C3C)C2)cc1 (stereo unspecified)
TGI [1]: > 100 µM
TGI [2]: > 100 µM
TGI [3]: > 100 µM
TGI [4]: > 100 µM
TGI [5]: > 100 µM
TGI [6]: > 100 µM
TGI [7]: > 100 µM
TGI [51]: > 100 µM
TGI [8]: > 100 µM
TGI [52]: > 100 µM
TGI [9]: > 100 µM
TGI [10]: > 100 µM
TGI [11]: > 100 µM
TGI [12]: > 100 µM
TGI [13]: > 100 µM
TGI [14]: > 100 µM
TGI [15]: > 100 µM
TGI [53]: > 100 µM
TGI [16]: > 100 µM
TGI [17]: > 100 µM
TGI [18]: > 100 µM
TGI [19]: > 100 µM
TGI [20]: > 100 µM
TGI [21]: > 100 µM
TGI [22]: > 100 µM
TGI [23]: > 100 µM
TGI [24]: > 100 µM
TGI [25]: > 100 µM
TGI [54]: > 100 µM
TGI [26]: > 100 µM
TGI [27]: > 100 µM
TGI [28]: > 100 µM
TGI [55]: > 100 µM
TGI [29]: > 100 µM
TGI [30]: > 100 µM
TGI [56]: > 100 µM
TGI [31]: > 100 µM
TGI [32]: > 100 µM
TGI [33]: > 100 µM
TGI [34]: > 100 µM
TGI [57]: > 100 µM
TGI [35]: > 100 µM
TGI [36]: > 100 µM
TGI [58]: > 100 µM
TGI [38]: > 100 µM
TGI [39]: > 100 µM
TGI [41]: > 100 µM
TGI [42]: > 100 µM
TGI [43]: > 100 µM
TGI [44]: > 100 µM
TGI [45]: > 100 µM
TGI [46]: > 100 µM
TGI [48]: > 100 µM
TGI [49]: > 100 µM
TGI [50]: > 100 µM

Nc1cccc(-c2cc(=O)c3cc4c(cc3[nH]2)OCO4)c1
TGI [1]: > 100 µM
TGI [2]: > 100 µM
TGI [3]: 5.72 µM
TGI [4]: > 100 µM
TGI [5]: > 100 µM
TGI [6]: 29.2 µM
TGI [51]: > 100 µM
TGI [52]: > 100 µM
TGI [9]: > 21.6 µM
TGI [10]: > 100 µM
TGI [59]: 6.56 µM
TGI [11]: 5.93 µM
TGI [12]: 3.62 µM
TGI [13]: 11.5 µM
TGI [14]: 0.881 µM
TGI [15]: > 22.6 µM
TGI [16]: > 100 µM
TGI [17]: > 100 µM
TGI [18]: 21.8 µM
TGI [60]: > 100 µM
TGI [19]: > 30.4 µM
TGI [20]: 2.79 µM
TGI [21]: > 100 µM
TGI [23]: > 100 µM
TGI [24]: > 100 µM
TGI [25]: > 100 µM
TGI [54]: 26.5 µM
TGI [26]: > 100 µM
TGI [27]: > 100 µM
TGI [28]: 24.9 µM
TGI [55]: 3.83 µM
TGI [61]: > 100 µM
TGI [29]: > 100 µM
TGI [62]: > 100 µM
TGI [30]: > 100 µM
TGI [56]: > 100 µM
TGI [33]: 4.25 µM
TGI [34]: > 100 µM
TGI [57]: > 100 µM
TGI [35]: > 100 µM
TGI [63]: > 100 µM
TGI [64]: 415 nM
TGI [65]: 13 µM
TGI [36]: > 100 µM
TGI [37]: > 100 µM
TGI [58]: > 100 µM
TGI [38]: > 100 µM
TGI [66]: 8.64 µM
TGI [39]: > 79.6 µM
TGI [40]: > 100 µM
TGI [41]: 59.7 µM
TGI [42]: 22.6 µM
TGI [43]: > 47.8 µM
TGI [44]: > 26.4 µM
TGI [45]: > 100 µM
TGI [46]: > 75.9 µM
TGI [67]: 474 nM
TGI [47]: > 100 µM
TGI [48]: > 28.5 µM
TGI [49]: > 48.5 µM
TGI [68]: 2950 nM
TGI [50]: > 100 µM
